{"source": "ChEMBL document CHEMBL1201862", "about": "“PubChem BioAssay data set” (2004)", "key": {"[1]": {"molecular_target": "5-hydroxytryptamine receptor 5A (Homo sapiens, UniProt P47898)", "sequence (P47898 whole entry)": "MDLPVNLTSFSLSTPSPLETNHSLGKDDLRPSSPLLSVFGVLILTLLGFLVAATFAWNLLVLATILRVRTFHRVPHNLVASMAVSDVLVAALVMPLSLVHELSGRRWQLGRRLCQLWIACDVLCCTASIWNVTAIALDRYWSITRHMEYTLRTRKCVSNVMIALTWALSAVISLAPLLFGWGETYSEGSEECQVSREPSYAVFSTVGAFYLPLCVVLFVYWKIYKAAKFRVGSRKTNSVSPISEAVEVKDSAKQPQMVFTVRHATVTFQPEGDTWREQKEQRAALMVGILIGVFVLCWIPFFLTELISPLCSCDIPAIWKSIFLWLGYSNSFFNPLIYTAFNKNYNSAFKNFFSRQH", "assay": "Counterscreen for agonists of OPRM1-OPRD1 heterodimerization: luminescence-based cell-based high throughput dose response assay to identify agonists of 5-hydroxytryptamine (serotonin) 5A receptor (HTR5A). [Related pubchem assays (depositor defined):AID504326, AID504355, AID504692, AID504904, AID504905]", "type": "functional"}, "[2]": {"assay": "NIH3T3 cell viability loss – ATP luminescence, mouse fibroblasts, counter-screen, dose response (AID 2010);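 also: cells exposed to compound for about 90 hours before reading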", "type": "functional, cell-based"}, "[3]": {"molecular_target": "Dual specificity protein phosphatase 6 (Rattus norvegicus, UniProt Q64346)", "sequence (Q64346 whole entry)": "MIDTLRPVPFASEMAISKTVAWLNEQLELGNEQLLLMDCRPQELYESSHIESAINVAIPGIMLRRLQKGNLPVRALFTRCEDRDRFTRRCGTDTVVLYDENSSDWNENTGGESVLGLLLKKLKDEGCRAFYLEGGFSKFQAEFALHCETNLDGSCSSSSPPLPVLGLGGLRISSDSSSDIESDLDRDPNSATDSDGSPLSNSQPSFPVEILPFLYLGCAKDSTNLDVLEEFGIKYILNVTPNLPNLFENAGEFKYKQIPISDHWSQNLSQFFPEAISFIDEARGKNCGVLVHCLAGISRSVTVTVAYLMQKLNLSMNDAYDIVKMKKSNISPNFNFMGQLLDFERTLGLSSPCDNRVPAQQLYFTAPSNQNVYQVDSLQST", "assay": "inhibition of rat DUSP6 enzyme activity – biochemical, in vitro, primary screen (AID 425)"}, "Insulin-degrading enzyme [4]": {"molecular_target": "T1, Insulin-degrading enzyme (Homo sapiens, UniProt P14735)", "T1 sequence (P14735 whole entry)": "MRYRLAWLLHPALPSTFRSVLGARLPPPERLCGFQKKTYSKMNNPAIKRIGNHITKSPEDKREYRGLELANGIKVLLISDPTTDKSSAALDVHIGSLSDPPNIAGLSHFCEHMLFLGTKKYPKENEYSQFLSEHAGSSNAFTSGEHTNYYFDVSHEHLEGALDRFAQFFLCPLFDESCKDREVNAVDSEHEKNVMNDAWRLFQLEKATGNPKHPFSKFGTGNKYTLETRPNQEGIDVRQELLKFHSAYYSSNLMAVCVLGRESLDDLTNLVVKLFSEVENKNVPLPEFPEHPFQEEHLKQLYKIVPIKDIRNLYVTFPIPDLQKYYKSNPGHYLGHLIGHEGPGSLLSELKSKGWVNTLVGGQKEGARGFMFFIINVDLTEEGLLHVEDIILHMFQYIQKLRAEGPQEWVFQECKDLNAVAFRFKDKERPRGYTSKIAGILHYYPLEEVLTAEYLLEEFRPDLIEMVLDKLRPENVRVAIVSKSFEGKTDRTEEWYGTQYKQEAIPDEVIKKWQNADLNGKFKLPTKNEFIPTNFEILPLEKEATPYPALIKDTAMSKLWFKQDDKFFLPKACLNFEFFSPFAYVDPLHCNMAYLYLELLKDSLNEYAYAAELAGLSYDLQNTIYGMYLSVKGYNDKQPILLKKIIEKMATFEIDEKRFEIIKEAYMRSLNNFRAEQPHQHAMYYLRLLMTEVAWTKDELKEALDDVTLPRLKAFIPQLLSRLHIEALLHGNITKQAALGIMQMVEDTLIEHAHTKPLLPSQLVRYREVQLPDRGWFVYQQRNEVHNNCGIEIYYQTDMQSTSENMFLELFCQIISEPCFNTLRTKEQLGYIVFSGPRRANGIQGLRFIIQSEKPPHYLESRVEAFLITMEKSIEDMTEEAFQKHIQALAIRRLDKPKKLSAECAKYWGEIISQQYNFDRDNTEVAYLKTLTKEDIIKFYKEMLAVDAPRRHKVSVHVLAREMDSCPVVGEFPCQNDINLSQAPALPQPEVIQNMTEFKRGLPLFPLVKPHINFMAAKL", "assay": "recombinant IDE activation, cell-free – biochemical, fluorescence polarization, counter-screen for IDE activator project, dose response (AID 588681)"}, "[5]": {"molecular_target": "T2, Histone-lysine N-methyltransferase NSD2 (Homo sapiens, UniProt O96028)", "T2 sequence (O96028 whole entry)": "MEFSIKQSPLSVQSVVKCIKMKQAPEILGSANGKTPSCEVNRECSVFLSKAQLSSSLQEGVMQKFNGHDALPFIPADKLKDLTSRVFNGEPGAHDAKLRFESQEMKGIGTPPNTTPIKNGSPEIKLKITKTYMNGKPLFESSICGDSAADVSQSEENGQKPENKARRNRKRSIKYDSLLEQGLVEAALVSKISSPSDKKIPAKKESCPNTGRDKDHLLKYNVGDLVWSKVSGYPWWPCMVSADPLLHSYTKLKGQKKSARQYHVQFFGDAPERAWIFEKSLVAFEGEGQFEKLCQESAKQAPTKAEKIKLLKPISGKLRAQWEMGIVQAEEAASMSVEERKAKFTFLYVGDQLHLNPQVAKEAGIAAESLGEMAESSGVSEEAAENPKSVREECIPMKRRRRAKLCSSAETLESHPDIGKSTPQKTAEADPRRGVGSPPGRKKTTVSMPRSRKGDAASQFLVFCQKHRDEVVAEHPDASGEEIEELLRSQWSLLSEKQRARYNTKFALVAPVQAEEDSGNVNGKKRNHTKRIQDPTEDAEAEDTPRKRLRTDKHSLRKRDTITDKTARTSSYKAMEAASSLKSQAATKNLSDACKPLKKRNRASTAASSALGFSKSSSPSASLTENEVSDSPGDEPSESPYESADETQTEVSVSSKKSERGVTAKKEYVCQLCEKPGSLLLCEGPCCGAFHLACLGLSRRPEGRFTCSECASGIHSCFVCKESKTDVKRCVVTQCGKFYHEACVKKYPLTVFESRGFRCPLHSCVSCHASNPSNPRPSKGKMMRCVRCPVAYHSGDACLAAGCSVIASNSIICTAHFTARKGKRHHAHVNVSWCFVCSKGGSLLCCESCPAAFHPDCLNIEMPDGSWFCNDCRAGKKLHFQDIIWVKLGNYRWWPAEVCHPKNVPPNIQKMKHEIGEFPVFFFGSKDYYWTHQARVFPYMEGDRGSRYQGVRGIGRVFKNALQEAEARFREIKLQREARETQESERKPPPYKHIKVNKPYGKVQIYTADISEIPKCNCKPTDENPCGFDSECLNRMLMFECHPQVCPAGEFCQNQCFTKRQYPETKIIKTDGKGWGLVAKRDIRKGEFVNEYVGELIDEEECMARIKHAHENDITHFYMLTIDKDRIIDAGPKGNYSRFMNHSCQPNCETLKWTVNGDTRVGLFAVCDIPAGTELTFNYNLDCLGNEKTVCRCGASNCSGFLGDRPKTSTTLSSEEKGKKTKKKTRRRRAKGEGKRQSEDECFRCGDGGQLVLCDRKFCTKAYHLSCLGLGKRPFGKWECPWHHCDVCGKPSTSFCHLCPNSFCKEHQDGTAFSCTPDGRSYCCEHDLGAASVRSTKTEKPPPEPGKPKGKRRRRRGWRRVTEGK", "type": "biochemical"}, "[6]": {"molecular_target": "Alkaline phosphatase, tissue-nonspecific isozyme (Homo sapiens, UniProt P05186)", "sequence (P05186 whole entry)": "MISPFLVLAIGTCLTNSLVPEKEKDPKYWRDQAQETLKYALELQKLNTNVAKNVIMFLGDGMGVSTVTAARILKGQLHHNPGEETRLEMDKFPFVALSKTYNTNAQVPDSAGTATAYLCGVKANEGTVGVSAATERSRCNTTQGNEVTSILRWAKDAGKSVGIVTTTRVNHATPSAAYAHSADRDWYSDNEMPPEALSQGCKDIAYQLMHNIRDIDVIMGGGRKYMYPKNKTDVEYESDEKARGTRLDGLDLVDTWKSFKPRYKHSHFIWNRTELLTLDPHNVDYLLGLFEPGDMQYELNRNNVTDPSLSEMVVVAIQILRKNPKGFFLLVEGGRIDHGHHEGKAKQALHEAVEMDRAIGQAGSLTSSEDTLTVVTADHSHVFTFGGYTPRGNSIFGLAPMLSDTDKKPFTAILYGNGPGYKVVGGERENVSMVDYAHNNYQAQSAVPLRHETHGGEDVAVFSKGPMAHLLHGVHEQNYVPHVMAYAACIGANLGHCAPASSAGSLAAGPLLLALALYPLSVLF"}, "Beta-lactamase": {"molecular_target": "Beta-lactamase (Salmonella choleraesuis (strain SC-B67), UniProt Q5J463)", "sequence (Q5J463 whole entry)": "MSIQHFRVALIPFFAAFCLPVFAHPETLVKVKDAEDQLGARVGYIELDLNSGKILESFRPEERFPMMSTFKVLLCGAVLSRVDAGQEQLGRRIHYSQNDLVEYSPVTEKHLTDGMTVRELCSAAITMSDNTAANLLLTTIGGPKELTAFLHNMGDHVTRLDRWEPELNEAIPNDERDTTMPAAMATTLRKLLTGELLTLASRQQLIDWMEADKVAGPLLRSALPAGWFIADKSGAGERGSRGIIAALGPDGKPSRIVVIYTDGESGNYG"}, "Insulin-degrading enzyme [7]": {"molecular_target": "T1, Insulin-degrading enzyme", "assay": "cellular IDE activation of Abeta substrate cleavage – fluorescence polarization, HEK cells, dose response (AID 588439)", "type": "functional, cell-based"}, "[8]": {"molecular_target": "Voltage-gated N-type calcium channel alpha-1B subunit/Amyloid beta A4 precursor protein-binding family A member 1 (Homo sapiens, UniProt Q00975+Q02410)", "sequence (Q00975 whole entry)": "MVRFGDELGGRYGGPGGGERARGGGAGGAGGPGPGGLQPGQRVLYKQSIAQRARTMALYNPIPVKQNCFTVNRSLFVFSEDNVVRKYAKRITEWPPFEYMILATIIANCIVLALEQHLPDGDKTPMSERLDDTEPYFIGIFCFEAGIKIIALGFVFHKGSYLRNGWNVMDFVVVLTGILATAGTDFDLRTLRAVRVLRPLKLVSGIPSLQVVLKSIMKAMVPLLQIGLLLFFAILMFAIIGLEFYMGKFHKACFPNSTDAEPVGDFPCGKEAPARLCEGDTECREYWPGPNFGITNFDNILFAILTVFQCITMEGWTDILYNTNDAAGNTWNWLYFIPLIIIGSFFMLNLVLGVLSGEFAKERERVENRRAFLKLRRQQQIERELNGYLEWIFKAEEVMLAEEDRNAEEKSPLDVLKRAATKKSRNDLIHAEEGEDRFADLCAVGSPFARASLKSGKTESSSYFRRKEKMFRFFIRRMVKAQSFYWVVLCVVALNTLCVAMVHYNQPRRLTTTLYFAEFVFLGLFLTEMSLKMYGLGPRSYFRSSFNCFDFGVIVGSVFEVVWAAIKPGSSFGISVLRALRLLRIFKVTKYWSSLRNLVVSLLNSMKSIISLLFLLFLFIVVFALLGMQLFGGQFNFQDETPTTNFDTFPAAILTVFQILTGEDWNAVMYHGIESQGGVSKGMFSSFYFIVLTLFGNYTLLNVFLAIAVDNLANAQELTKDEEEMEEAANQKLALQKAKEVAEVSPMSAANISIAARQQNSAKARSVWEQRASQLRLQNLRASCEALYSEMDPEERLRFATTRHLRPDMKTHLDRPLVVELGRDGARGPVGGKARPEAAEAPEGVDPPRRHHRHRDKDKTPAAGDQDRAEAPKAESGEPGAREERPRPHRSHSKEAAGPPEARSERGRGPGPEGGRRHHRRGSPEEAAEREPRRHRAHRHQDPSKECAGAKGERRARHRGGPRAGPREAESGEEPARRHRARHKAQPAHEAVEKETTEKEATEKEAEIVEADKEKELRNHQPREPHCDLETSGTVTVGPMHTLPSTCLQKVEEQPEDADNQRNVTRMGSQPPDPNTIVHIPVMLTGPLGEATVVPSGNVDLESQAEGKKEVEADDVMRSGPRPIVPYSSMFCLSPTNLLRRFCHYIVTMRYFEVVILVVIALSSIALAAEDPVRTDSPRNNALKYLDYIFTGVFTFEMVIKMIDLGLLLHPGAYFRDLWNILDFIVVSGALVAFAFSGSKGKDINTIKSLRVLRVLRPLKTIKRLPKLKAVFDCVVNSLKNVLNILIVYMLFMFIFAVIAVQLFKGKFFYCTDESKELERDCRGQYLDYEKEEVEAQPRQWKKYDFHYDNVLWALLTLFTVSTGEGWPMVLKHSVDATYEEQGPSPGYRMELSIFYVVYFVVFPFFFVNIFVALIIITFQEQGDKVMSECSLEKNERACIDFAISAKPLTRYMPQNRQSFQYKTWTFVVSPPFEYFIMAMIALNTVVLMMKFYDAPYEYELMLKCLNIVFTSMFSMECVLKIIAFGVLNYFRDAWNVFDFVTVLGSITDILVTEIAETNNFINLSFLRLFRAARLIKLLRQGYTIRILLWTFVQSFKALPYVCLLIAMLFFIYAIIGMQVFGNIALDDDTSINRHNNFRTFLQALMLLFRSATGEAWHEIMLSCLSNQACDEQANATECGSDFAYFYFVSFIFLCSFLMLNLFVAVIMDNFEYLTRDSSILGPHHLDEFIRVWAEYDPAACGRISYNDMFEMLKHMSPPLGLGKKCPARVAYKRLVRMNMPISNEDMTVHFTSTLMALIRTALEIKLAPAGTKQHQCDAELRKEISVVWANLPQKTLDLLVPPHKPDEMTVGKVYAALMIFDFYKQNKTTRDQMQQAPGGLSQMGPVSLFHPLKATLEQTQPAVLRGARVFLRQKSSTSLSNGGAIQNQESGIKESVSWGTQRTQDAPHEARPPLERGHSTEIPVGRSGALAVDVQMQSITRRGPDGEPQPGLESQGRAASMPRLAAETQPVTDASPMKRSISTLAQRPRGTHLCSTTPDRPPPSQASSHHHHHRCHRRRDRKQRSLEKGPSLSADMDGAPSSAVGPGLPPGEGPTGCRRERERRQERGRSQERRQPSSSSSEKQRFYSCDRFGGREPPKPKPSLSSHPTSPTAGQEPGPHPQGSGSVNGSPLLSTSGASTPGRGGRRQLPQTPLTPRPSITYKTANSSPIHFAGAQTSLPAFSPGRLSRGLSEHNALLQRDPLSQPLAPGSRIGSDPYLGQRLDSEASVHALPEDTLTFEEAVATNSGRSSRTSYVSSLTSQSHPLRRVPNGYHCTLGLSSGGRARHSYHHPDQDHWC", "sequence (Q02410 whole entry)": "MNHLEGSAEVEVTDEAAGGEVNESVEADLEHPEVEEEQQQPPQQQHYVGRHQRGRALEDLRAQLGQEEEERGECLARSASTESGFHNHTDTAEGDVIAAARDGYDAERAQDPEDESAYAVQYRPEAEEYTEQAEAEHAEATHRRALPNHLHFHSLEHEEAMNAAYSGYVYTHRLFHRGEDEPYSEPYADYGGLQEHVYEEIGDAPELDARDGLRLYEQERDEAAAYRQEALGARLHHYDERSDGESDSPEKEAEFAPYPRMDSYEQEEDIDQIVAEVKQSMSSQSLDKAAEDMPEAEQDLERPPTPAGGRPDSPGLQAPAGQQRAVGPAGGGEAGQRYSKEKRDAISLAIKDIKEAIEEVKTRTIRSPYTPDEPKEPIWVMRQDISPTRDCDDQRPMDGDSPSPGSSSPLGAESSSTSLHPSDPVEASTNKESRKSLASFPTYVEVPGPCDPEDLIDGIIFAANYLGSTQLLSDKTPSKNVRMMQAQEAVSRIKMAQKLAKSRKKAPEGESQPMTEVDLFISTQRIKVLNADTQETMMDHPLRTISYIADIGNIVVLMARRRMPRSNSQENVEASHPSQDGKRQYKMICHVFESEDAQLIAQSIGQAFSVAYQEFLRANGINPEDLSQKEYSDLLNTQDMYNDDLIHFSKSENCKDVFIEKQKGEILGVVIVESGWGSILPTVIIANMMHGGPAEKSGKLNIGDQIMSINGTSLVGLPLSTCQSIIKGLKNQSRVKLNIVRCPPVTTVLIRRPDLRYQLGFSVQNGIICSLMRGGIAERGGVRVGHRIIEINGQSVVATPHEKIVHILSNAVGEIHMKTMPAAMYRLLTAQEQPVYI", "type": "protein assay"}}, "note": "The source made the active and inactive calls."}
{"molecule": "CCCCCCCCCCOC(=O)C[n+]1c(COc2ccccc2C)n(C)c2ccccc21", "values": [{"measurement": "EC50", "setting": "[1]", "value": "> 92.5 µM (inactive)"}, {"measurement": "EC50", "setting": "[2]", "value": "> 60 µM (not active)"}]}
{"molecule": "Oc1nc(Nc2ccccc2)cc2ccccc12", "values": [{"measurement": "IC50", "setting": "[3]", "value": "> 100 µM (not active)"}]}
{"molecule": "COc1cc(OC)c(-c2c3cc(O)c(=O)cc-3oc3cc(O)c(O)cc23)cc1OC", "values": [{"measurement": "EC50", "setting": "Insulin-degrading enzyme [4]", "value": "> 54.7 µM (inactive)"}, {"measurement": "AC50", "setting": "[5]", "value": "0.282 µM (active)"}, {"measurement": "EC50", "setting": "[6]", "value": "> 100 µM (not active)"}, {"measurement": "IC50", "setting": "Beta-lactamase", "value": "2.13 µM (active)"}, {"measurement": "EC50", "setting": "Insulin-degrading enzyme [7]", "value": "> 54.7 µM (inactive)"}, {"measurement": "IC50", "setting": "[8]", "value": "12.5 µM (active)"}]}
